Test [1] deals with LDH-2 (Ec. mundtii LDH-2). To be noted: read-out: LDH-2 D241N / pH 5.5; pH 5.5 (MES-NaOH), 1.5 mM NADH, 20 mM pyruvate; allosteric activator.
Test [2] deals with LDH-2 (Ec. mundtii LDH-2). To be noted: read-out: LDH-2 D241N / pH 5.5, pH 5.5 (MES-NaOH), 3 mM FBP (activator).

Structures are written as SMILES. Read-outs that look alike come from different tables or passages of the source.

As for `O=P(O)(O)OC[C@H]1OC(O)(COP(=O)(O)O)[C@@H](O)[C@@H]1O` (stereo partly drawn) [FBP], the EC50 in test [1] is 76 ± 45 nM.

As for `NC(=O)C1=CN([C@@H]2O[C@H](COP(=O)(O)OP(=O)(O)OC[C@H]3O[C@@H](n4cnc5c(N)ncnc54)[C@H](O)[C@@H]3O)[C@@H](O)[C@H]2O)C=CC1` [NADH], the Km in test [2] (20 mM pyruvate) was determined as 200 ± 40 µM.

For the molecule `CC(=O)C(=O)O` [pyruvate], in test [2] (1.5 mM NADH), the Km worked out at 2300 ± 400 µM.

Source of the values: article PMC4219987 (FEBS Open Bio, 2014).
